{
  "source": "patent EP1379539B1",
  "about": "“METHODS AND MATERIALS FOR MAKING AND USING TRANSGENIC DICAMBA-DEGRADING ORGANISMS” (BOARD OF REGENTS OF THE UNIVERSITY OF NEBRASKA, priority 2001, dated 2002)",
  "key": {"[1]": {"test_system": "wild type tobacco plants", "details": "for effect on non-transgenic plants: sprayed"}, "[2]": {"test_system": "Transgenic tobacco plants bearing oxygenase gene constructs but lacking the transit peptide coding sequence", "details": "sprayed, 0.5 lbs/acre to 5 lbs/acre tested"}, "[3]": {"test_system": "transgenic tobacco plants bearing the oxygenase gene constructs with the transit peptide", "details": "0.5 lbs/acre to 5 lbs/acre tested"}, "[4]": {"test_system": "Transgenic plants containing the three gene construct (oxygenase, ferredoxin and reductase genes)"}},
  "note": "Read-outs that look alike come from different tables or passages of the source.",
  "data": [
    {"smiles": "COc1c(Cl)ccc(Cl)c1C(=O)O", "note": "[dicamba, 2-methoxy-3,6-dichlorobenzoic acid]", "values": [
      {"measurement": "effect on non-transgenic plants", "setting": "[1]; 0.125 Ib/acre dicamba", "result": "reduced growth, withering and severe necrosis"},
      {"measurement": "sensitivity of the wild type plants", "setting": "[1]; 0.5 lbs/acre of dicamba, sprayed at 10-12-leaf stage with non-ionic surfactant", "result": 100, "unit": "%"},
      {"measurement": "effect on non-transgenic plants", "setting": "[1]; same amounts of dicamba as the transgenic plants (0.5 lbs/acre to 5 lbs/acre)", "result": "reduced growth, withering and severe necrosis"},
      {"measurement": "dicamba treatment to which plants displayed resistance (grew and were healthy)", "setting": "[2]", "result": "at least 2.5 lbs/acre"},
      {"measurement": "concentration of dicamba at which sprayed plants grew and were healthy", "setting": "[3]", "result": "up to 5 lbs/acre"},
      {"measurement": "effect on transgenic plants", "setting": "[4]; 0.125 Ib/acre dicamba, sprayed", "result": "grew and were healthy"},
      {"measurement": "predicted resistance to dicamba", "setting": "[4]; predicted from plants with the oxygenase construct alone", "result": "≥ 2.5", "unit": "Ib/acre"}
    ]}
  ]
}
